Laboratory results as given in patent publication US20070167408A1, “NOVEL ALKYL PHOSPHOLIPID DERIVATIVES WITH REDUCED CYTOTOXICITY AND USES THEREOF” (ZENTARIS GmbH, priority 2005, published 2007).
In brackets after ≈: the same amount, converted by molar mass.

Experiments:
[1] = system: epimastigotes of Trypanosoma cruzi strain Y; assay: In vitro activity of miltefosine and benznidazole against epimastigotes; format: cell-based; conditions: 72 h
Protocol: In vitro activity of Miltefosine and Benznidazole in the course of a combination treatment against Trypanosoma cruzi strain Y was assessed compared to the respective single treatments with miltefosine or benznidazole alone.
Miltefosine and Benznidazol were tested in vitro in combination against epimastigote forms of Trypanosoma cruzi strain Y which were isolated from a chagasic patient in Sao Paulo, Brazil and obtained from Dr. Victor Nussenzweig (Silva, L H. and Nussenzweig, V.; Folia clin. biol., 20: 191-207, 1953). This T. cruzi Y strain can also be ordered at ATCC 50832, while the ATCC strain must be re-adapted by several passages through mice in order to regain the strain's original characteristics of differentiation and virulence.
Epimastigotes were axenially cultured in brain heart infusion medium (BHI, Becton, Dickinson, Cat. No. 221812) supplemented with 10 mg of hemin per liter and 5% heat inactivated fetal calf serum (FCS) at 28° C. with shaking (˜80 rpm) up to a maximum of 10-12 passages, before the cultures were aged to obtain metacyclics that were purified on a DE-52 column (Whatman DEAE cellulose ion exchange column, Waco, Cat. No. 17050-03 or 17050-04) and injected into mice. After 2-4 weeks parasites were recovered from blood and placed back into axenic culture.
Stock solutions of Miltefosine and Benznidazol in concentrations of 10 mg/ml and 20 mg/ml dissolved in methanol were used. Stock solutions were serially diluted with a factor of 2 in BHI-FCS medium. For Benznidazol the following testing concentrations were used: 80 μg/ml, 40 μg/ml, 20 μg/ml, 10 μg/ml, 5 μg/ml and 2.5 μg/ml. The testing concentrations for Miltefosine were 20 μg/ml, 10 μg/ml, 5 μg/ml, 2.5 μg/ml, 1.25 μg/ml and 0.625 μg/ml.
2×10^6 epimastigotes were incubated in BHI-FCS medium with Miltefosine and Benznidazol in a final volume of 200 μl. After 72 h incubation at 28° C., parasite growth was determined by direct counting the number of parasites with a Neubauer chamber. The 50% inhibitory concentrations were determined by linear regression analysis.

[2] = system: Cryptococcus neoformans ATCC 90112; assay: Anti-fungal broth microdilution (MIC), fungus H; format: cell-based; conditions: yeast protocol, more than 80% inhibition, 48 h
In short: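 Broth microdilution per NCCLS M27-A (yeasts) and M38-A (filamentous fungi), compounds tested from 64 down to 0.125 μg/ml against 10^6 CFU/ml inocula. For filamentous fungi, MIC read after 48 to 72 h at 35° C as the concentration giving more than 50% visible growth inhibition.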

[3] = system: Plasmodium faiciparum (strain 3D7); assay: In vitro drug activity assay, protozoon D; format: cell-based, Plasmodium falciparum; conditions: strain 3D7, 3[H]-hypoxanthine method
Protocol: (§1) In vitro activity of selected compounds of the invention against different protozoa was assessed as follows.
Plasmodium falciparum strain K1 and strain 3D7 parasites were cultured according to Trager W and Jensen J B (Science 1976, 193: 673-675). In vitro drug susceptibility assays with the test compounds were carried out according to Korsinczky M et al. (Antimicrobial agents and chemotherapy 2000, 44(8): 2100-2108) and Fivelman Q L et al. (Antimicrobial agents and chemotherapy 2004, 48(11): 4097-4102) using a ^3[H]-hypoxanthine radioisotope method. ED50 values were calculated with Msxlfit (IDBS).
(§2) The following protozoa were assessed: • A) Trypanosoma cruzi (Tulahuan-LACZ amstigotes in PEM, Lorente S O et al., Antimicrobial agents and chemotherapy 2004, 48(8): 2937-2950; Buckner et al., Infection and Immunity 1999, 67(1): 403-409; Buckner et al., Antimicrobial Agents and Chemotherapy 1996, 40(11): 2592-2597) • B) Trypanosoma brucei rhodesiense (strain STIB900, Lorente S O et al., Antimicrobial agents and chemotherapy 2004, 48(8): 2937-2950; Habtemariam S, BMC Pharmacology 2003, 3:6) • C) Plasmodium falciparum (strain K1, Korsinczky M et al., Antimicrobial agents and chemotherapy 2000, 44(8): 2100-2108; Thaitong S and Beale G H, Trans. R. Soc. Trop. Med. Hyg. 1981, 75: 271-273; Trager W and Jensen J B, Science 1976, 193: 673-675) • D) Plasmodium faiciparum (strain 3D7, Mu et al., PLoS Biology 2005, 3(10): e335)

[4] = system: Trypanosoma brucei rhodesiense (strain STIB900); assay: In vitro drug activity assay, protozoon B; format: cell-based; conditions: bloodstream form trypomastigotes, 72 hours, Alamar Blue
Protocol: as §1
Trypanosoma brucei rhodesiense STIB900 bloodstream form trypomastigotes were maintained in HMI-18 medium (Hirumi H, Hirumi K, J Parasitol. 1989, 75(6):985-989) with 15% heat-inactivated fetal calf serum at 37° C., 5% CO2, humidified atmosphere. Trypomastigotes were washed and resuspended in fresh medium at a concentration of 2×10^5 mL. Test compounds were given to the trypomastigotes and plates were incubated for 72 hours at 37° C., 5% CO2, humidified atmosphere. At 72 hours the plates were assessed microscopically before Alamar Blue was added (Raz et al., Acta Trop. 1997, 68: 139-147). Plates were read after 5 to 6 hours at EX/EM 530/585 nm with a filter cutoff at 550 nm. ED50 values were calculated with Msxlfit (IDBS).
as §2

SMILES	Epimastigotes [amount/mL] ([1]; miltefosine 1.25 ug/mL)	Epimastigotes [amount/mL] ([1]; miltefosine 2.5 ug/mL)	MIC, fungus H [2] [µg/mL]	ED50 (μg/mL), protozoon D [3] [µg/mL]	ED50 (μg/mL), protozoon B [4] [µg/mL]
CCCCCCCCCCCCCCCCOP(=O)([O-])OCC[N+](C)(C)C [miltefosine, hexadecylphosphocholine, reference compound]	820.000	290.000			
CCCCCCCCCCCCCCCCOP(=O)([O-])OCC[N+]1(C)CCCCC1 [Compound 2, Phosphoric acid hexadecyl ester 2-(1-methyl-piperidin-1-yl)-ethyl ester]			1.5 (≈ 3.35 µM)	2.21 (≈ 4.94 µM)	17.50 (≈ 39.1 µM)
